According to patent US8895762B2, “Process for the preparation of sulfamide derivatives” (Janssen Pharmaceutica NV, priority 2011, dated 2014):

Test: solubility in water at room temperature
Type: physicochemical

- solubility in water: 0.35 g/100 g water
SMILES: NC[C@H]1COc2cc(Cl)ccc2O1 [compound of formula (V-S), (2S)-6-chloro-2,3-dihydro-1,4-benzodioxin-2-methanamine]
